# Source: patent US3954733A, “Naphthyridine-3-carboxamido-benzylpenicillins and salts thereof” (Sumitomo Chemical Company, Limited, priority 1973, dated 1976)
# Legend:
# Test in all cases: minimal inhibitory concentration, agar dilution method
# Type in all cases: cell-based
# [1] = system: Pseudomonas aeruginosa 104
# From the text: (§1) When determined according to the agar dilution method, the penicillins (I) afford the minimal inhibitory concentrations against test microorganisms as shown in Table 2.
# [2] = system: Staphylococcus aureus 209P
# From the text: as §1
# [3] = system: Escherichia coli NIHJ
# From the text: as §1
# [4] = system: Proteus vulgaris HV19
# [5] = system: Proteus miravilis GN2425
SMILES,MIC [1] [µg/mL],MIC [2] [µg/mL],MIC [3] [µg/mL],MIC [4] [µg/mL],MIC [5] [µg/mL]
CC(C)COC(=O)Oc1ccc([C@@H](NC(=O)c2cnc3nc(N(C)C)ncc3c2O)C(=O)N[C@@H]2C(=O)N3[C@@H]2SC(C)(C)[C@@H]3C(=O)O)cc1 [Example 30],6.25,0.78,6.25,0.05,3.13
CCOC(=O)Oc1ccc([C@@H](NC(=O)c2cnc3ccccc3c2OC(=O)OCC)C(=O)N[C@@H]2C(=O)N3[C@@H]2SC(C)(C)[C@@H]3C(=O)O)cc1 [Example 12],6.25,0.78,3.13,0.2,3.13
CC1(C)S[C@@H]2[C@H](NC(=O)[C@H](NC(=O)c3cc4ccccc4nc3O)c3ccc(O)cc3)C(=O)N2[C@H]1C(=O)O [Example 27],6.25,0.78,6.25,0.2,3.13
CCOC(=O)Oc1ccc([C@@H](NC(=O)c2cnc3ccc(N(C)C)nc3c2O)C(=O)N[C@@H]2C(=O)N3[C@@H]2SC(C)(C)[C@@H]3C(=O)O)cc1Cl [Example 25],3.13,0.78,3.13,0.05,3.13
COc1ccc2ncc(C(=O)N[C@@H](C(=O)N[C@@H]3C(=O)N4[C@@H]3SC(C)(C)[C@@H]4C(=O)O)c3ccc(O)cc3)c(O)c2n1 [Example 19],3.13,0.78,3.13,0.05,3.13
Cc1nc(C)c2c(O)c(C(=O)N[C@@H](C(=O)N[C@@H]3C(=O)N4[C@@H]3SC(C)(C)[C@@H]4C(=O)O)c3ccc(O)cc3)cnc2n1 [Example 31],3.13,0.78,3.13,0.1,3.13
CC1(C)S[C@@H]2[C@H](NC(=O)[C@H](NC(=O)c3cnc4ccncc4c3O)c3ccc(O)cc3)C(=O)N2[C@H]1C(=O)O [Example 29],6.25,0.78,12.5,0.2,12.5
"CC1(C)S[C@@H]2[C@H](NC(=O)C(NC(=O)c3cnc4ccccc4c3O)c3ccc(O)cc3)C(=O)N2[C@H]1C(=O)O (mixture of isomers) [Example 6, DL-α-(4-hydroxyquinoline-3-carboxamido)-p-hydroxybenzylpenicillin]",6.25,0.78,6.25,0.2,6.25
CCOC(=O)Oc1ccc([C@@H](NC(=O)c2cnc3nc(C)ccc3c2O)C(=O)N[C@@H]2C(=O)N3[C@@H]2SC(C)(C)[C@@H]3C(=O)O)cc1 [Example 15],3.13,1.56,3.13,0.1,6.25
CC1(C)S[C@@H]2[C@H](NC(=O)[C@H](NC(=O)c3cnc4cccnc4c3O)c3ccc(O)c(Cl)c3)C(=O)N2[C@H]1C(=O)O [Example 32],3.13,0.78,3.13,0.05,6.25
CC1(C)S[C@@H]2[C@H](NC(=O)[C@H](NC(=O)c3cnc4ccc(N)nc4c3O)c3ccc(O)cc3)C(=O)N2[C@H]1C(=O)O [Example 24],3.13,1.56,1.56,0.05,3.13
COc1cnc2c(O)c(C(=O)N[C@@H](C(=O)N[C@@H]3C(=O)N4[C@@H]3SC(C)(C)[C@@H]4C(=O)O)c3ccc(O)cc3)cnc2n1 [Example 41],3.13,1.56,6.25,0.2,6.25

# The next lines start with the values.
MIC [1] [µg/mL],MIC [2] [µg/mL],MIC [3] [µg/mL],MIC [4] [µg/mL],MIC [5] [µg/mL],SMILES
3.13,1.56,1.56,0.1,1.56,"CCOC(=O)Oc1ccc(C(NC(=O)c2cnc3ccc(N(C)C)nc3c2O)C(=O)N[C@@H]2C(=O)N3[C@@H]2SC(C)(C)[C@@H]3C(=O)O)cc1 (mixture of isomers) [Example 3, DL-α-(4-hydroxy-6-dimethylamino-1,5-naphthyridine-3-carboxamido)-p-ethoxycarbonyloxybenzylpenicillin]"
3.13,1.56,3.13,0.05,3.13,"CCOC(=O)Oc1c(C(=O)N[C@@H](C(=O)N[C@@H]2C(=O)N3[C@@H]2SC(C)(C)[C@@H]3C(=O)O)c2ccc(OC(=O)OCc3ccccc3)cc2)cnc2cccnc12 [Example 5, D-α-(4-ethoxycarbonyloxy-1,5-naphthyridine-3-carboxamido)-p-benzyloxycarbonyloxybenzylpenicillin]"
3.13,1.56,3.13,0.2,3.13,CCOC(=O)Oc1ccc([C@@H](NC(=O)c2cnc3ccc(NC(C)=O)nc3c2O)C(=O)N[C@@H]2C(=O)N3[C@@H]2SC(C)(C)[C@@H]3C(=O)O)cc1 [Example 23]
1.56,0.78,1.56,0.05,1.56,CC1(C)S[C@@H]2[C@H](NC(=O)[C@H](NC(=O)c3cnc4cncnc4c3O)c3ccc(O)cc3)C(=O)N2[C@H]1C(=O)O [Example 34]
1.56,0.78,1.56,0.025,1.56,"CC1(C)S[C@@H]2[C@H](NC(=O)[C@H](NC(=O)c3cnc4cccnc4c3O)c3ccc(O)cc3)C(=O)N2[C@H]1C(=O)O [Example 1, D-α-(4-hydroxy-1,5-naphthyridine-3-carboxamido)-p-hydroxybenzylpenicillin]"
1.56,0.78,1.56,0.05,1.56,CCOC(=O)Oc1ccc([C@@H](NC(=O)c2cnc3cccnc3c2S)C(=O)N[C@@H]2C(=O)N3[C@@H]2SC(C)(C)[C@@H]3C(=O)O)cc1 [Example 39]
1.56,0.78,1.56,0.025,1.56,CCOC(=O)Oc1ccc([C@@H](NC(=O)c2cnc3cccnc3c2OC(=O)OCC)C(=O)N[C@@H]2C(=O)N3[C@@H]2SC(C)(C)[C@@H]3C(=O)O)cc1 [Example 37]
1.56,0.78,1.56,0.025,1.56,CC1(C)S[C@@H]2[C@H](NC(=O)[C@H](NC(=O)c3cnc4cccnc4c3S)c3ccc(O)cc3)C(=O)N2[C@H]1C(=O)O [Example 43]
1.56,0.78,1.56,0.025,1.56,Cc1nc(C)c2ncc(C(=O)N[C@@H](C(=O)N[C@@H]3C(=O)N4[C@@H]3SC(C)(C)[C@@H]4C(=O)O)c3ccc(O)cc3)c(O)c2n1 [Example 35]
1.56,0.78,1.56,0.1,1.56,CCOC(=O)Oc1ccc([C@@H](NC(=O)c2cnc3ccc(SC)nc3c2O)C(=O)N[C@@H]2C(=O)N3[C@@H]2SC(C)(C)[C@@H]3C(=O)O)cc1 [Example 17]
1.56,0.78,1.56,0.05,3.13,"Cc1ccc2c(O)c(C(=O)N[C@@H](C(=O)N[C@@H]3C(=O)N4[C@@H]3SC(C)(C)[C@@H]4C(=O)O)c3ccc(O)cc3)cnc2n1 [Example 7, D-α-(4-hydroxy-7-methyl-1,8-naphthyridine-3-carboxamido)-p-hydroxybenzylpenicillin]"
